Data as given in patent publication EP0215357B1, “Pharmaceutical preparation for the treatment of hypertension” (HOECHST AKTIENGESELLSCHAFT, priority 1985, dated 1987).

System: spontan hypertensive Ratten (Wistar-Kyoto)
Test: Urine excretion over 5 hours in spontaneously hypertensive rats (metabolic cages)
Type: in vivo, Ratte
Conditions: mean ± spread
Method: 10 spontan hypertensive Ratten (Wistar-Kyoto) wurden instrumentiert und während der Versuche in Stoffwechselkäfigen gehalten. Ramipril (=A) (1 mg/kg) und Piretanid (=B) (1,2 und 16 mg/kg) werden in Tylose oral mit Magensonde verabreicht. Die Kontrollgruppe erhielt nur Tylose. Die ausgeschiedene Urinmenge nach 5 Stunden, die Natriumausscheidung nach 5 Stunden sowie der arterielle Mitteldruck wurden bestimmt. Tabelle 1

Structure (SMILES) | Urinmenge (1 mg/kg oral in Tylose) [µ1/100g.5h] | Urinmenge (2 mg/kg oral in Tylose) [µ1/100g.5h] | Urinmenge (16 mg/kg oral in Tylose) [µ1/100g.5h]
NS(=O)(=O)c1cc(C(=O)O)cc(N2CCCC2)c1Oc1ccccc1 [B, Piretanid] | 900±180 | 1470±140 | 3520±405
CCOC(=O)[C@H](CCc1ccccc1)N[C@@H](C)C(=O)N1[C@H](C(=O)O)C[C@@H]2CCC[C@@H]21 [A, Ramipril] | 760±185 | – | –
